Data as given in publication PMC7252619 (PLoS ONE, 2020).
“And” between values parts separate entries of the source, which are not always exact repeats. Identical values can stand only once. Like-named read-outs stand apart in the source and are kept apart here. Blank lines part the entries; values can stand above or below the compound they belong to.

Legend:
Assay in all cases: Kinase activity test (ReactionBiology), % enzyme activity relative to DMSO
Type in all cases: biochemical
[1] = biological target: T1, DAPK1 (Homo sapiens, UniProt P53355); details: for remaining activity at 1 µM / remaining activity at 10 µM: DAPK1
T1 construct: purchased ReactionBiology
T1 sequence (P53355 whole entry): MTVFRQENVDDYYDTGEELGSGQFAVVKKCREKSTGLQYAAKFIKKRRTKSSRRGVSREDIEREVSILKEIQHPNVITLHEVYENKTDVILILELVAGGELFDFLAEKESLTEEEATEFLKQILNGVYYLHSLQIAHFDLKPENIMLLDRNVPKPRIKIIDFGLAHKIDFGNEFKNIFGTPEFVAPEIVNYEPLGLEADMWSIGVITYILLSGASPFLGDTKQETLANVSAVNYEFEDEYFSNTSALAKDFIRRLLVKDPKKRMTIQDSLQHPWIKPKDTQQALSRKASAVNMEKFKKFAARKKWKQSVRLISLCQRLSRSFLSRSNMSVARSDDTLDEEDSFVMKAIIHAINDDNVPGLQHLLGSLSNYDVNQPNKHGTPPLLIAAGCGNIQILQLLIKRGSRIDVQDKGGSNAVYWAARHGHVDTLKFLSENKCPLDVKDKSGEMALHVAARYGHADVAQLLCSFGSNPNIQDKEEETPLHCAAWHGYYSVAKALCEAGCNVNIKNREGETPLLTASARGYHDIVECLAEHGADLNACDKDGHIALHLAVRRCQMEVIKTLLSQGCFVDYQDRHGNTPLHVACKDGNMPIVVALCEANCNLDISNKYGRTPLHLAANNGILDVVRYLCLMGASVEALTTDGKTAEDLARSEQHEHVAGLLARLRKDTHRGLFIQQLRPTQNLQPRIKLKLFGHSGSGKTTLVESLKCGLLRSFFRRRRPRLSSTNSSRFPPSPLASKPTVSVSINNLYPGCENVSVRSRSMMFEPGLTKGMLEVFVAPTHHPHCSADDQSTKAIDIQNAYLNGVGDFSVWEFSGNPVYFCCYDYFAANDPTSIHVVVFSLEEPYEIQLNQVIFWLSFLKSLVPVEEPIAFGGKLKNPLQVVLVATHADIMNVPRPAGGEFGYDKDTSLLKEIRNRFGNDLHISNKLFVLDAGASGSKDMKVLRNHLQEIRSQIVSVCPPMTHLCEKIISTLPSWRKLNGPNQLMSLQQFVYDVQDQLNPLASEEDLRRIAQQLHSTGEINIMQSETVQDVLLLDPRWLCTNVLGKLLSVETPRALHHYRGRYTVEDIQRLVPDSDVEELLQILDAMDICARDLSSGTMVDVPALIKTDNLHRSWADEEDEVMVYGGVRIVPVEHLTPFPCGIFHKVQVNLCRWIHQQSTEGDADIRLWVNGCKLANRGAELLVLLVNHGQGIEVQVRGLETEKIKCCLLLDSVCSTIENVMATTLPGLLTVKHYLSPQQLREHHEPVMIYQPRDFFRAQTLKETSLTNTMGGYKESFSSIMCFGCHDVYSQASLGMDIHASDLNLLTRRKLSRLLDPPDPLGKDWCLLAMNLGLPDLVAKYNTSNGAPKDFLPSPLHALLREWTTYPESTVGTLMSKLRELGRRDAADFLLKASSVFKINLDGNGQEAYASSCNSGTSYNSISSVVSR

[2] = biological target: T2, MST-4 (Homo sapiens, UniProt Q9P289); details: for % Enzyme Activity (relative to DMSO controls), Average / % Enzyme Activity (relative to DMSO controls), Data 1 / % Enzyme Activity (relative to DMSO controls), Data 2: MST4; for % Enzyme Activity (relative to DMSO controls), Data 1: replicate Data 1; for % Enzyme Activity (relative to DMSO controls), Data 2: replicate Data 2;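 on all read-outs here: marketed FDA-approved drugs screened at 10 µM and 1 µM against a ten-kinase panel, remaining activity given as percent of DMSO controls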
T2 construct: purchased ReactionBiology
T2 sequence (Q9P289 whole entry): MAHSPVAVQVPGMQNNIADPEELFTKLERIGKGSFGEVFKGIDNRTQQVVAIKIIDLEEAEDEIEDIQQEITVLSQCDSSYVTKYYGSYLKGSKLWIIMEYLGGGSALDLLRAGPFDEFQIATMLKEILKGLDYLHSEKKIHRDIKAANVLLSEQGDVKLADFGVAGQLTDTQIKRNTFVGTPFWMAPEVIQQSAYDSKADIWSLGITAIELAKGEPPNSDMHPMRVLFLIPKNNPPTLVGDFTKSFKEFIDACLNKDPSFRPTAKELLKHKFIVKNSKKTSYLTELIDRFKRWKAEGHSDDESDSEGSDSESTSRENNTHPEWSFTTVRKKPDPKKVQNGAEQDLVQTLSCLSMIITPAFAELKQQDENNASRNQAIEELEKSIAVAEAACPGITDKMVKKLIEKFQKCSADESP

[3] = biological target: VEGFR2 (Homo sapiens, UniProt P35968); parameters: purchased ReactionBiology; details: VEGFR2;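 further: VEGFR2 was one member of a ten-kinase screening panel testing marketed FDA-approved drugs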
Chain of VEGFR2 (P35968 20-1356): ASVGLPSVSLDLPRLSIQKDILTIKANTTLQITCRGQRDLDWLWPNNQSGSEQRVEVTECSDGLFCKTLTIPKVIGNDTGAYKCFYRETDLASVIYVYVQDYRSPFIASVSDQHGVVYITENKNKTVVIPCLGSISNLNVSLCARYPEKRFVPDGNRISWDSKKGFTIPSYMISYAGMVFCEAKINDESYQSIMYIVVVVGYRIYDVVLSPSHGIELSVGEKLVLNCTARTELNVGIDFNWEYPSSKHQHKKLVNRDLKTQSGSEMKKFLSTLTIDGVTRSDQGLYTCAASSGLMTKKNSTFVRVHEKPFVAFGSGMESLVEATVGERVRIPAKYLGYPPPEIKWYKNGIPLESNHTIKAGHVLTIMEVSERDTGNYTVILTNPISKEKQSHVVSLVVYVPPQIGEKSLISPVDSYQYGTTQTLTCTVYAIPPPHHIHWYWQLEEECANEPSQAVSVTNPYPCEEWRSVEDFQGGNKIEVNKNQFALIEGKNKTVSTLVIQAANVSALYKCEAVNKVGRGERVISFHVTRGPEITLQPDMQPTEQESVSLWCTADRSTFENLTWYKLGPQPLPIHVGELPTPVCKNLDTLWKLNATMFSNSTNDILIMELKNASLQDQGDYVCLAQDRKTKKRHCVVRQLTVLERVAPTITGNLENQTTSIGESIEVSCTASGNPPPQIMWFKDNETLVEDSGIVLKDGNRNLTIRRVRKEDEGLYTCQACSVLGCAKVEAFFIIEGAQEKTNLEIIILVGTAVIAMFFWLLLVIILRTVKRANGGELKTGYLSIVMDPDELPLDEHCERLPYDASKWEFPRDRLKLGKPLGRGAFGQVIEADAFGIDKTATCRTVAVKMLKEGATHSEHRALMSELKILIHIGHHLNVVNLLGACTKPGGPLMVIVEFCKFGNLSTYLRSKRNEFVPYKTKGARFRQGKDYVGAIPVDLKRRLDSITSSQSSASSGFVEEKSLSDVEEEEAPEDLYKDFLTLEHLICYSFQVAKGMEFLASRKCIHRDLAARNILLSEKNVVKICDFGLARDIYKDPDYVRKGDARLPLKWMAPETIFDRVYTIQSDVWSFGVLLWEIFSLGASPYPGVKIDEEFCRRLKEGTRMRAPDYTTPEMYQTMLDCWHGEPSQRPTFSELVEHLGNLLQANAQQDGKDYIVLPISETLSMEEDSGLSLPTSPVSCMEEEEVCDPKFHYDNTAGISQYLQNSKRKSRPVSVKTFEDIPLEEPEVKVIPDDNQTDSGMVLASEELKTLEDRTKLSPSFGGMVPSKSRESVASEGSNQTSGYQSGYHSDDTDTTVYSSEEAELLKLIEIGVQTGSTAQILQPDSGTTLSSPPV

[4] = biological target: T3, NEK2 (Homo sapiens, UniProt P51955); details: NEK2;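 further: FDA-approved drugs chosen by structure-based repositioning, each screened at 10 or 1 µM for kinase activity, expressed as percent of DMSO controls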
T3 construct: purchased ReactionBiology
T3 sequence (P51955 1-445): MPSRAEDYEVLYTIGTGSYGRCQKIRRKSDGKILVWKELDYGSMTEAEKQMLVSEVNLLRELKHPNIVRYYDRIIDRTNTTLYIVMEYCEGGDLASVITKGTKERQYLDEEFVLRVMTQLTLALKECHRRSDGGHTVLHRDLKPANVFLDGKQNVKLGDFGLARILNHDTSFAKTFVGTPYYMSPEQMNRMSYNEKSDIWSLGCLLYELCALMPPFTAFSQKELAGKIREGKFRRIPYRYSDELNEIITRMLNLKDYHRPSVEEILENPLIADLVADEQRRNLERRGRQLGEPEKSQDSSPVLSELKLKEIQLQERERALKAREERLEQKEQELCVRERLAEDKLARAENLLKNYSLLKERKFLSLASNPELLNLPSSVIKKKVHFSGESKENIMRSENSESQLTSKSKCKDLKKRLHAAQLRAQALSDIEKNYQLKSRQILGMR

[5] = biological target: T4, CK1d (Homo sapiens, UniProt P48730); details: CK1d
T4 construct: purchased ReactionBiology
T4 sequence (P48730 whole entry): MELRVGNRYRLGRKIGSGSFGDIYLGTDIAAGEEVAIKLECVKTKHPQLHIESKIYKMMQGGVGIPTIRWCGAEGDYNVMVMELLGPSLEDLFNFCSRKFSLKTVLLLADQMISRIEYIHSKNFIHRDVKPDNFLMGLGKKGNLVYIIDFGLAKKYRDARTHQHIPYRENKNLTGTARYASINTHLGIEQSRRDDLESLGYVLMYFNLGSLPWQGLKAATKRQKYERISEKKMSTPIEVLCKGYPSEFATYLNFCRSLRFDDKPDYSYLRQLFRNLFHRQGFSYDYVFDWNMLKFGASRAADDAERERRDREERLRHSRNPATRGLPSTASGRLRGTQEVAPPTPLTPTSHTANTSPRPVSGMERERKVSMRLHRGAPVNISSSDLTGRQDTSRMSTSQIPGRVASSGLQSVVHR

[6] = biological target: T5, EPHB4 (Homo sapiens, UniProt P54760); details: EPHB4;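 further: EPHB4 was one of ten selected kinases in the screening panel, with enzyme activity expressed as a percentage of DMSO controls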
T5 construct: purchased ReactionBiology
T5 sequence (P54760 16-987): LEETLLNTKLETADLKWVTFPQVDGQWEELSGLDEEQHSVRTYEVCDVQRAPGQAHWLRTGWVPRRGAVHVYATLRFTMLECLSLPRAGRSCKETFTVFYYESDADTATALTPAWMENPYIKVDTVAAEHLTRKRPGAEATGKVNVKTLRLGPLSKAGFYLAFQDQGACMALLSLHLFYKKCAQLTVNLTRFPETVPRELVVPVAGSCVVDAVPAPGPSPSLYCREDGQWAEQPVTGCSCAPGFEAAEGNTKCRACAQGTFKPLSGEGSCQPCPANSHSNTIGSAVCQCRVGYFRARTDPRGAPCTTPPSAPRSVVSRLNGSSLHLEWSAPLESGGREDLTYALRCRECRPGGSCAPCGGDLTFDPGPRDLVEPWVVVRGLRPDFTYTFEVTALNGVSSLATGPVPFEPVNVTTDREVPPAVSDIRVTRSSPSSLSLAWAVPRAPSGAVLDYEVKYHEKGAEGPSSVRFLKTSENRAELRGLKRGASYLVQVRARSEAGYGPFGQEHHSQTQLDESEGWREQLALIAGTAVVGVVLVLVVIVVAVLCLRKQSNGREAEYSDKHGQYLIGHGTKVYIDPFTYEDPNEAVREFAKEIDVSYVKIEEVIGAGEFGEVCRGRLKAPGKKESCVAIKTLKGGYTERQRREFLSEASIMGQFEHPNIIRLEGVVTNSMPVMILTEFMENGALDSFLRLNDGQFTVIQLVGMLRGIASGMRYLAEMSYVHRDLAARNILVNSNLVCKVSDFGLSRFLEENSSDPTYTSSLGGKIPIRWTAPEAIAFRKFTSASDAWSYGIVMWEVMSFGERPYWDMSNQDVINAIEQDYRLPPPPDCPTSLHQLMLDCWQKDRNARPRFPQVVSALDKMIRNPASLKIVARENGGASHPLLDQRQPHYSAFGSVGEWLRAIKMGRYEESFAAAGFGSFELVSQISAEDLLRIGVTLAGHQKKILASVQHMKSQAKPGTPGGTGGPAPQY

[7] = 1 uM, Average, read-out: % Enzyme Activity (relative to DMSO controls), Average
[8] = 1 uM, replicate Data 1, read-out: % Enzyme Activity (relative to DMSO controls), Data 1
[9] = 1 uM, replicate Data 2, read-out: % Enzyme Activity (relative to DMSO controls), Data 2
[10] = 10 uM, Average, read-out: % Enzyme Activity (relative to DMSO controls), Average
[11] = 10 uM, replicate Data 1, read-out: % Enzyme Activity (relative to DMSO controls), Data 1
[12] = 10 uM, replicate Data 2, read-out: % Enzyme Activity (relative to DMSO controls), Data 2
[13] = Average, read-out: % Enzyme Activity (relative to DMSO controls), Average
[14] = replicate Data 1, read-out: % Enzyme Activity (relative to DMSO controls), Data 1
[15] = replicate Data 2, read-out: % Enzyme Activity (relative to DMSO controls), Data 2
[16] = read-out: % Enzyme Activity (relative to DMSO controls), Average
[17] = read-out: % Enzyme Activity (relative to DMSO controls), Data 1
[18] = read-out: % Enzyme Activity (relative to DMSO controls), Data 2

SMILES: Oc1ccc(O)cc1 [Hydroquinone]
- % Enzyme Activity (relative to DMSO controls), Average [1]: 106.84% and 99.20%
- % Enzyme Activity (relative to DMSO controls), Data 1 [1]: 112.42% and 95.43%
- % Enzyme Activity (relative to DMSO controls), Data 2 [1]: 101.25% and 102.97%
- % Enzyme Activity (relative to DMSO controls), Average ([2]; 1 uM): 86.76%
- % Enzyme Activity (relative to DMSO controls), Data 1 ([2]; 1 uM): 90.83%
- % Enzyme Activity (relative to DMSO controls), Data 2 ([2]; 1 uM): 82.69%
- % Enzyme Activity (relative to DMSO controls), Average ([2]; 10 uM): 89.91%
- % Enzyme Activity (relative to DMSO controls), Data 1 ([2]; 10 uM): 90.73%
- % Enzyme Activity (relative to DMSO controls), Data 2 ([2]; 10 uM): 89.08%
- % Enzyme Activity (relative to DMSO controls), Average ([3]; 1 uM, Average): 108.33%
- % Enzyme Activity (relative to DMSO controls), Data 1 ([3]; 1 uM, replicate Data 1): 107.95%
- % Enzyme Activity (relative to DMSO controls), Data 2 ([3]; 1 uM, replicate Data 2): 108.7%
- % Enzyme Activity (relative to DMSO controls), Average ([3]; 10 uM, Average): 108.92%
- % Enzyme Activity (relative to DMSO controls), Data 1 ([3]; 10 uM, replicate Data 1): 109.26%
- % Enzyme Activity (relative to DMSO controls), Data 2 ([3]; 10 uM, replicate Data 2): 108.57%

SMILES: Cc1cccc(C)c1OCC(=O)N[C@@H](Cc1ccccc1)[C@@H](O)C[C@H](Cc1ccccc1)NC(=O)[C@H](C(C)C)N1CCCNC1=O [Lopinavir, reference compound]
- remaining activity at 1 µM [4, 7]: 116%
- remaining activity at 1 µM [4, 8]: 118%
- remaining activity at 1 µM [4, 9]: 115%
- remaining activity at 10 µM [4, 10]: 88.7%
- remaining activity at 10 µM [4, 11]: 98.3%
- remaining activity at 10 µM [4, 12]: 79.2%
- remaining activity at 1 µM [1, 7]: 90.4%
- remaining activity at 1 µM [1, 8]: 87.6%
- remaining activity at 1 µM [1, 9]: 93.2%
- remaining activity at 10 µM [1, 10]: 49.9%
- remaining activity at 10 µM [1, 11]: 47.2%
- remaining activity at 10 µM [1, 12]: 52.5%
- remaining activity at 1 µM ([1]; compound 1μM, relative to DMSO controls, read-out: % Enzyme activity at 1μM): 90.4%
- remaining activity at 10 µM ([1]; compound 10μM, relative to DMSO controls, read-out: % Enzyme activity at 10μM): 49.9%
- remaining activity at 1 µM [5, 13]: 107%
- remaining activity at 1 µM [5, 14]: 111%
- remaining activity at 1 µM [5, 15]: 102%
- remaining activity at 10 µM [5, 13]: 109%
- remaining activity at 10 µM [5, 14]: 113%
- remaining activity at 10 µM [5, 15]: 105%
- remaining activity at 1 µM [6, 13]: 92.6%
- remaining activity at 1 µM [6, 14]: 95.6%
- remaining activity at 1 µM [6, 15]: 89.7%
- remaining activity at 10 µM [6, 13]: 87.3%
- remaining activity at 10 µM [6, 14]: 89%
- remaining activity at 10 µM [6, 15]: 85.7%
- remaining activity at 1 µM [3, 7]: 104%
- remaining activity at 1 µM [3, 8]: 106%
- remaining activity at 1 µM [3, 9]: 103%
- remaining activity at 10 µM [3, 10]: 99%
- remaining activity at 10 µM [3, 11]: 103%
- remaining activity at 10 µM [3, 12]: 95%

SMILES: O=P(O)(O)C(O)(Cc1cnc2ccccn12)P(=O)(O)O [Minodronic acid]
- remaining activity at 1 µM [2, 16]: 95.6%
- remaining activity at 10 µM [2, 16]: 81.5%
- remaining activity at 1 µM [2, 17]: 84.5%
- remaining activity at 10 µM [2, 17]: 83.7%
- remaining activity at 1 µM [2, 18]: 107%
- remaining activity at 10 µM [2, 18]: 79.3%

SMILES: C[C@H](O)[C@H](O)[C@H]1CNc2nc(N)[nH]c(=O)c2N1 [Sapropterin]
- % Enzyme Activity (relative to DMSO controls), Average ([4]; 1 uM, Average): 93.31%
- % Enzyme Activity (relative to DMSO controls), Data 1 ([4]; 1 uM, replicate Data 1): 92.46%
- % Enzyme Activity (relative to DMSO controls), Data 2 ([4]; 1 uM, replicate Data 2): 94.15%
- % Enzyme Activity (relative to DMSO controls), Average ([4]; 10 uM, Average): 93.52%
- % Enzyme Activity (relative to DMSO controls), Data 1 ([4]; 10 uM, replicate Data 1): 92.39%
- % Enzyme Activity (relative to DMSO controls), Data 2 ([4]; 10 uM, replicate Data 2): 94.64%
- % Enzyme Activity (relative to DMSO controls), Average ([2]; 1 uM): 87.71%
- % Enzyme Activity (relative to DMSO controls), Data 1 ([2]; 1 uM): 88.88%
- % Enzyme Activity (relative to DMSO controls), Data 2 ([2]; 1 uM): 86.54%
- % Enzyme Activity (relative to DMSO controls), Average ([2]; 10 uM): 87.19%
- % Enzyme Activity (relative to DMSO controls), Data 1 ([2]; 10 uM): 96.6%
- % Enzyme Activity (relative to DMSO controls), Data 2 ([2]; 10 uM): 77.78%
- % Enzyme Activity (relative to DMSO controls), Average ([3]; 1 uM, Average): 98.99%
- % Enzyme Activity (relative to DMSO controls), Data 1 ([3]; 1 uM, replicate Data 1): 101.37%
- % Enzyme Activity (relative to DMSO controls), Data 2 ([3]; 1 uM, replicate Data 2): 96.61%
- % Enzyme Activity (relative to DMSO controls), Average ([3]; 10 uM, Average): 98.14%
- % Enzyme Activity (relative to DMSO controls), Data 1 ([3]; 10 uM, replicate Data 1): 98.48%
- % Enzyme Activity (relative to DMSO controls), Data 2 ([3]; 10 uM, replicate Data 2): 97.79%

Second part, the compound after the results:

- remaining activity at 1 µM [4, 7]: 88.2%
- remaining activity at 1 µM [4, 8]: 88.1%
- remaining activity at 1 µM [4, 9]: 88.3%
- remaining activity at 10 µM [4, 10]: 102%
- remaining activity at 10 µM [4, 11]: 93.8%
- remaining activity at 10 µM [4, 12]: 109%
- remaining activity at 1 µM [5, 13]: 105%
- remaining activity at 1 µM [5, 14]: 107%
- remaining activity at 1 µM [5, 15]: 103%
- remaining activity at 10 µM [5, 13]: 109%
- remaining activity at 10 µM [5, 14]: 109%
- remaining activity at 10 µM [5, 15]: 110%
- remaining activity at 1 µM [6, 13]: 101%
- remaining activity at 1 µM [6, 14]: 99.4%
- remaining activity at 1 µM [6, 15]: 102%
- remaining activity at 10 µM [6, 13]: 93.4%
- remaining activity at 10 µM [6, 14]: 93%
- remaining activity at 10 µM [6, 15]: 93.8%
- remaining activity at 1 µM [3, 7]: 96.6%
- remaining activity at 1 µM [3, 8]: 94.4%
- remaining activity at 1 µM [3, 9]: 98.7%
- remaining activity at 10 µM [3, 10]: 101%
- remaining activity at 10 µM [3, 11]: 103%
- remaining activity at 10 µM [3, 12]: 99.4%
SMILES: O=C(O)c1ccccc1O [Salicylic acid]

- % Enzyme Activity (relative to DMSO controls), Average ([2]; 1 uM): 61.30%
- % Enzyme Activity (relative to DMSO controls), Data 1 ([2]; 1 uM): 64.87%
- % Enzyme Activity (relative to DMSO controls), Data 2 ([2]; 1 uM): 57.73%
- % Enzyme Activity (relative to DMSO controls), Average ([2]; 10 uM): 101.79%
- % Enzyme Activity (relative to DMSO controls), Data 1 ([2]; 10 uM): 93.77%
- % Enzyme Activity (relative to DMSO controls), Data 2 ([2]; 10 uM): 109.8%
SMILES: O=C(CCCCCCC(=O)Nc1ccccc1)NO [Vorinostat]
